{"source": "ChEMBL document CHEMBL1201862", "about": "“PubChem BioAssay data set” (2004)", "key": {"[1]": {"assay": "cells", "type": "functional, cell-based"}, "[2]": {"target": "Nuclear receptor subfamily 0 group B member 1 (Homo sapiens, UniProt P51843)", "sequence (P51843 whole entry)": "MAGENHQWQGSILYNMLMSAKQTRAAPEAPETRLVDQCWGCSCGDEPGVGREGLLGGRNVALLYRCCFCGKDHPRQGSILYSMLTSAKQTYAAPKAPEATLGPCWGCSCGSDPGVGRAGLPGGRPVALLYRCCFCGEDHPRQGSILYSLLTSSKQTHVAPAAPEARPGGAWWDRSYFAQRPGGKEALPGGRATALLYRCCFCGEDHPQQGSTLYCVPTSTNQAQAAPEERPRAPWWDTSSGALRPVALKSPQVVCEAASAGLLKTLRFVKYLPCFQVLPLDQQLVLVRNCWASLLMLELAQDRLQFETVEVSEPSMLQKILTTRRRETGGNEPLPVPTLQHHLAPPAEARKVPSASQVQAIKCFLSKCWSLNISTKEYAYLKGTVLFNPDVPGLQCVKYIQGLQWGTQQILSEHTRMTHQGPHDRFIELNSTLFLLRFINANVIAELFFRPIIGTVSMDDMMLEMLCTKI", "type": "functional, cell-based"}, "[3]": {"target": "Adenosylmethionine-8-amino-7-oxononanoate aminotransferase (Mycobacterium tuberculosis, UniProt P9WQ81)", "sequence (P9WQ81 whole entry)": "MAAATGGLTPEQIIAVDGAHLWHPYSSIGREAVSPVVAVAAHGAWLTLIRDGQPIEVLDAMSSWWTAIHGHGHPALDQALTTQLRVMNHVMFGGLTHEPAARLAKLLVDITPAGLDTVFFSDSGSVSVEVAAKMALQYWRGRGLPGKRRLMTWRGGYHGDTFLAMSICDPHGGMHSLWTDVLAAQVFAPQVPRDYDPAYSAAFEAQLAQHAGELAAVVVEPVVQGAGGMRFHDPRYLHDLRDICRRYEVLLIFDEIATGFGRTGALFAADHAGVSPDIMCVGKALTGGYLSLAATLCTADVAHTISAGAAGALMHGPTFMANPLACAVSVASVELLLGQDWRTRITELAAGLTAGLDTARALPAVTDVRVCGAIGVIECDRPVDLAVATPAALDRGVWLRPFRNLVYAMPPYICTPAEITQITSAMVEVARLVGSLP", "assay": "Mycobacterium tuberculosis BioA enzyme inhibitor Measured in Biochemical System Using Plate Reader - 2163-02_Inhibitor_Dose_CherryPick_Activity.", "type": "functional, Mycobacterium tuberculosis UT205"}, "[4]": {"target": "Beta-lactamase (Salmonella choleraesuis (strain SC-B67), UniProt Q5J463)", "sequence (Q5J463 whole entry)": "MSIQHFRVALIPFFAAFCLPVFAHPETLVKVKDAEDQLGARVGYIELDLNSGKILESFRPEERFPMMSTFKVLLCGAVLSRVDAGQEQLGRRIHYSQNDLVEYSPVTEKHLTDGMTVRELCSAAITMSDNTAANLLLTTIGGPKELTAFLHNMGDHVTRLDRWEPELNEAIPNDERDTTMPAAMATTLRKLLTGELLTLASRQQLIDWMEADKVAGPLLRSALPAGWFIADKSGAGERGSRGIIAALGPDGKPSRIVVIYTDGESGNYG", "assay": "Epi-absorbance-based counterscreen for selective VIM-2 inhibitors: dose response biochemical high throughput screening assay to identify inhibitors of TEM-1 serine-beta-lactamase."}, "[5]": {"target": "T1, Beta-lactamase (Pseudomonas aeruginosa, UniProt Q79MP6)", "T1 sequence (Q79MP6 whole entry)": "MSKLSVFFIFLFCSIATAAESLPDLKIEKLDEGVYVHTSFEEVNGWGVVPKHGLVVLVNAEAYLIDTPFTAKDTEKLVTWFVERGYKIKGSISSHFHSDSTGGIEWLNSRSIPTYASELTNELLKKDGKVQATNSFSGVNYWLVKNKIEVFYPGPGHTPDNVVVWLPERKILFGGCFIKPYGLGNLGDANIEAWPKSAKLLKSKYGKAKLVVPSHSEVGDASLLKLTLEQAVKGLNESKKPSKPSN", "assay": "IMP-1 metallo-beta-lactamase inhibitors, dose response, selectivity assay for VIM-2 inhibitor project, biochemical, epi-absorbance (AID 1920)"}, "[6]": {"target": "T1, Beta-lactamase", "assay": "[…] counterscreen for selective VIM-2 inhibitors: dose response biochemical high throughput screening assay to identify inhibitors of IMP-1 metallo-beta-lactamase."}, "[7]": {"target": "Nuclear receptor subfamily 5 group A member 2 (Homo sapiens, UniProt O00482)", "sequence (O00482 whole entry)": "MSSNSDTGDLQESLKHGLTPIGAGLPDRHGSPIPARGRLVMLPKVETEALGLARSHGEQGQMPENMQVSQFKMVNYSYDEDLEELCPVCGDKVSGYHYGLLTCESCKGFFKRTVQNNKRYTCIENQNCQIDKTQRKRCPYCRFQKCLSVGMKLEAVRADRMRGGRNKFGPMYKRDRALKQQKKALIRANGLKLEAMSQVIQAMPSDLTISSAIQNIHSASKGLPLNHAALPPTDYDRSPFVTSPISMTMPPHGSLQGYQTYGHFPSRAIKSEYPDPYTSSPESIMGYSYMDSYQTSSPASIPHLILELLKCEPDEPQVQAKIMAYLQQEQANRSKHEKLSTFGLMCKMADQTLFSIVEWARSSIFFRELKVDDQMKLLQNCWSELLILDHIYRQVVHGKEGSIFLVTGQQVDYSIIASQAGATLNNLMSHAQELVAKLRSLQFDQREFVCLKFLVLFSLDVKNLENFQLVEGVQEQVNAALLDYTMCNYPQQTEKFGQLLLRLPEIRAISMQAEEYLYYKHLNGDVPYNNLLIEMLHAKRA", "type": "functional, cell-based"}, "[8]": {"target": "Steroidogenic factor 1 (Homo sapiens, UniProt Q13285)", "sequence (Q13285 whole entry)": "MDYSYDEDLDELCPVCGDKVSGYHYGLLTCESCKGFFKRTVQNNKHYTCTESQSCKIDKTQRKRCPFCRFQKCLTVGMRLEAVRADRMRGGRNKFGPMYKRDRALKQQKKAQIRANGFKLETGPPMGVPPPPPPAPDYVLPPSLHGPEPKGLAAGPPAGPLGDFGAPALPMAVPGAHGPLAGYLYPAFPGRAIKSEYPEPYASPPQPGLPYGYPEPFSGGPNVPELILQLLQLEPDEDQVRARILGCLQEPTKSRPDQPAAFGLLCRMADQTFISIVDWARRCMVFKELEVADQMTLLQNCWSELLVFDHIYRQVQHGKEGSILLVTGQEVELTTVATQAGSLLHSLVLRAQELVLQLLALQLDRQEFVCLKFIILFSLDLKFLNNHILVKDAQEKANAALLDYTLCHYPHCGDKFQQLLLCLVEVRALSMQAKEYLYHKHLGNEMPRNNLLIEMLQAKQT", "assay": "Counterscreen for inverse agonists of the liver receptor homolog-1 (LRH-1; NR5A2): Luminescence-based cell-based high throughput dose response assay to identify inverse agonists of the Steroidogenic Factor 1 Nuclear Receptor (SF1; NR5A1).", "type": "functional"}, "[9]": {"assay": "StAR promoter reporter inhibition counter-screen, dose response, counter-screen for LRH-1 inverse agonist project, cell-based, luminescence, luciferase reporter (AID 651969)", "type": "functional"}, "[10]": {"assay": "LGR2 antagonists, dose response, cell-based, HEK293, CRE-luciferase reporter, cherry pick, set 2 (AID 743343);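 note: transfected cells were stimulated with diluted bursicon conditioned medium after compound addition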", "type": "functional"}, "[11]": {"assay": "MC4R antagonists, dose response, counter-screen for LGR2 antagonist project, cell-based, plate reader, cherry pick (AID 743444);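 note: transfected HEK 293 cells stimulated with alpha-MSH peptide; potency of inhibitors of the alpha-MSH evoked signal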", "type": "functional"}, "[12]": {"assay": "Fluorescence-based cell-based high throughput dose response assay for inhibitors of the interaction of nucleotide-binding oligomerization domain containing 2 (NOD2) and the receptor-interacting serine-threonine kinase 2 (RIPK2).", "type": "functional", "conditions": "Homo sapiens"}, "[13]": {"target": "SWI/SNF-related matrix-associated actin-dependent regulator of chromatin subfamily A member 2 (Homo sapiens, UniProt P51531)", "sequence (P51531 whole entry)": "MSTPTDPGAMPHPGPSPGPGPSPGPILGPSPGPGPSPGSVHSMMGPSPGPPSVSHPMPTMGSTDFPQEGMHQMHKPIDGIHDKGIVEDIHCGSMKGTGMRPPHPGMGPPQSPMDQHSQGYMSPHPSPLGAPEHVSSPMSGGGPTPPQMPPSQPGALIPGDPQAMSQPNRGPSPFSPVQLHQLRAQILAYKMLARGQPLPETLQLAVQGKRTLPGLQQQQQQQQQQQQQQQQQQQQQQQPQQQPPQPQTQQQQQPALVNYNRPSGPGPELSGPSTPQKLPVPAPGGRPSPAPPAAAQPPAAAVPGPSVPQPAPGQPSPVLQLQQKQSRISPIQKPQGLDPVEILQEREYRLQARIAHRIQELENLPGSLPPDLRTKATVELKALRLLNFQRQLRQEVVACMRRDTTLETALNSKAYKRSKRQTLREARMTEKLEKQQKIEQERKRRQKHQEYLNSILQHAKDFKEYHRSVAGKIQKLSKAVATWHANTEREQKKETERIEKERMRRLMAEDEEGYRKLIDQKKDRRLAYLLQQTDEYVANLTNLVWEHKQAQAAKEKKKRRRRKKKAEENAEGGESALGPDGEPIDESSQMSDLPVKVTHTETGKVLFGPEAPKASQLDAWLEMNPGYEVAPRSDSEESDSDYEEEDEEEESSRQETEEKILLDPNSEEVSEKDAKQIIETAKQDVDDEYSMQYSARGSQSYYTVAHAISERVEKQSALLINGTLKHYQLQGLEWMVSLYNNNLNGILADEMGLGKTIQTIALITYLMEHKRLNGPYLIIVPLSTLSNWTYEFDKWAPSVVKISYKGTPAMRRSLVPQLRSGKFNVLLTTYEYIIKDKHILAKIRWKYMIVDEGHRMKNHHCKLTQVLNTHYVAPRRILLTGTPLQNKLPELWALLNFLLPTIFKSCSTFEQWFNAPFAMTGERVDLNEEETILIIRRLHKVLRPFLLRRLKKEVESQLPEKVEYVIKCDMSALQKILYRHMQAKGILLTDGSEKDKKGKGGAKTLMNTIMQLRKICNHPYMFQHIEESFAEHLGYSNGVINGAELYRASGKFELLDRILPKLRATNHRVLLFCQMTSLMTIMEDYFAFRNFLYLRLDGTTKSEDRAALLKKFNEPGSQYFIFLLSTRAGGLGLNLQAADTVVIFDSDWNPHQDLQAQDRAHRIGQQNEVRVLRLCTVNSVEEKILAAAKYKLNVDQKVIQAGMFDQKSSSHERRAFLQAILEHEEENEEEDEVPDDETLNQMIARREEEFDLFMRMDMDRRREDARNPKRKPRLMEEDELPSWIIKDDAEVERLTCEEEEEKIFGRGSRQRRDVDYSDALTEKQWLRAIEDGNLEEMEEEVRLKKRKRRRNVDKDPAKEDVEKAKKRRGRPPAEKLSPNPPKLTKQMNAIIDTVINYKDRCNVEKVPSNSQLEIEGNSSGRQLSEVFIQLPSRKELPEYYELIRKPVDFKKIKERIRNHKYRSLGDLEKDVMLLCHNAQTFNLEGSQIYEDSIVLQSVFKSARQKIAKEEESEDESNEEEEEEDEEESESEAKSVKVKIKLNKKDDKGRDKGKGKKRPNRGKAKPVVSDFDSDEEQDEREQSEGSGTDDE", "assay": "Luminescence-based cell-based high throughput dose response assay to identify activators of the function of SWI/SNF related, matrix associated, actin dependent regulator of chromatin, subfamily a, member 2 (SMARCA2, BRM).", "type": "functional"}, "[14]": {"assay": "Counterscreen for activators of the function of SWI/SNF related, matrix associated, actin dependent regulator of chromatin, subfamily a, member 2 (SMARCA2, BRM): Luminescence-based cell-based high throughput dose response assay to identify non-selective compounds using the VP16 reporter assay.", "type": "functional"}, "[15]": {"assay": "inhibitors of HIV Env-driven cell fusion, dose response, cherry-pick (AID 652057)", "type": "functional, cell-based"}, "[16]": {"assay": "ZM109 Env clade C HIV-1 fusion inhibitors, dose response, HeLa effector, CEM target cells, luciferase, cherry-pick (AID 652058)", "type": "functional, cell-based"}, "[17]": {"assay": "off-target signal loss in HeLa-CEM21 co-culture – HeLa F-luc CTL cells, cherry-picked, counter-screen for HIV-1 Env fusion inhibitor project, dose response (AID 652040);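 note: potency for signal decrease marking cytotoxic or nonspecific inhibition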", "type": "functional, cell-based"}, "[18]": {"assay": "inhibitors of clade B AD8 Env fusion, dose response, cell-based, cherry-pick (AID 652062);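 note: potency is for inhibitors of fusion seen as a drop in luminescence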", "type": "functional"}, "[19]": {"target": "T2, Methionyl-tRNA synthetase, putative (Trypanosoma brucei brucei, UniProt Q38C91)", "T2 sequence (Q38C91 whole entry)": "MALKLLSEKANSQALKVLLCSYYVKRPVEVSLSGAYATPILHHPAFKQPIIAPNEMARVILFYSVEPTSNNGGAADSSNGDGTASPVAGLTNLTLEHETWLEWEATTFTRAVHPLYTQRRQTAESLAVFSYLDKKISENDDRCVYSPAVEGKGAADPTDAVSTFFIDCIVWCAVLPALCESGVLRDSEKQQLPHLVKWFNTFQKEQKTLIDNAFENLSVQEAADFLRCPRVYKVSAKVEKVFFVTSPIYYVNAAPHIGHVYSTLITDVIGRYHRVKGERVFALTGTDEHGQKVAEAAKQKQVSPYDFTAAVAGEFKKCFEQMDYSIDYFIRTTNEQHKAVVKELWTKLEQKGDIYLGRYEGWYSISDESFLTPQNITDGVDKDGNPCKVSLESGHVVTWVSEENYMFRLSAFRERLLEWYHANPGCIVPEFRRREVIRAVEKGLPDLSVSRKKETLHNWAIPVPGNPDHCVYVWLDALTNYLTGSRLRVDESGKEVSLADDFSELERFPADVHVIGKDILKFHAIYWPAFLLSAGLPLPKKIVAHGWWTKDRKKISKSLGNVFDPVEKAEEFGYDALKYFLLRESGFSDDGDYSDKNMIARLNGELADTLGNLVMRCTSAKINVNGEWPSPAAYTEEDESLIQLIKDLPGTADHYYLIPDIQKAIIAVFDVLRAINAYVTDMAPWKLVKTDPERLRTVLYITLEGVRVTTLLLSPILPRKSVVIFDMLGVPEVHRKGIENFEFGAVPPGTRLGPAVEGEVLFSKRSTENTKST", "type": "functional, Trypanosoma brucei brucei strain 927/4 GUTat10.1"}, "[20]": {"assay": "Counterscreen for inhibitors of Trypanosoma brucei methionyl tRNA synthetase (MetRS): Luminescence-based cell-based high throughput dose response assay to identify compounds that are cytotoxic to Jurkat human T lymphocyte cells.", "type": "functional"}, "[21]": {"target": "T2, Methionyl-tRNA synthetase, putative", "type": "functional, Trypanosoma brucei brucei strain 927/4 GUTat10.1", "remark": "listed apart in the source"}, "[22]": {"target": "Caspase-6 (Homo sapiens, UniProt P55212)", "sequence (P55212 24-179 limits assumed)": "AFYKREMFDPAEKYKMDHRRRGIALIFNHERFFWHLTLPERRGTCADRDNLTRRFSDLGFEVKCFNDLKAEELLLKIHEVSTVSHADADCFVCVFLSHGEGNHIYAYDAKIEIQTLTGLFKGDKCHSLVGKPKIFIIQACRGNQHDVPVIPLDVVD", "sequence (P55212 194-293 limits assumed)": "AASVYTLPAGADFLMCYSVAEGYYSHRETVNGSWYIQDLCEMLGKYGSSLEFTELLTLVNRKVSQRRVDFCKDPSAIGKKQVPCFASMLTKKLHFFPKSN", "assay": "human caspase-6 inhibitors, dose response, biochemical, VEID-R110 fluorescence, cherry-pick (AID 720632)"}}, "note": "Active and inactive are the calls of the source."}
{"smiles": "O=C(Nc1ccc(Cl)cn1)c1ccc2nccnc2c1", "values": [{"measurement": "IC50", "setting": "[1]", "value": "> 67.6 µM (inactive)"}, {"measurement": "IC50", "setting": "[2]", "value": "> 67.6 µM (inactive)"}]}
{"smiles": "COc1cc(-c2nnc(S)n2Cc2ccccc2)cc(OC)c1OC", "values": [{"measurement": "AC50", "setting": "[3]", "value": "2.51 µM (active)"}]}
{"smiles": "COc1cc2c(cc1OC)C(C)N(C(=O)c1nccnc1C(=O)O)CC2", "note": "(stereo not drawn)", "values": [{"measurement": "IC50", "setting": "[4]", "value": "> 59.6 µM (inactive)"}, {"measurement": "IC50", "setting": "[5]", "value": "> 59.6 µM (inactive)"}, {"measurement": "IC50", "setting": "[6]", "value": "> 59.6 µM (inactive)"}]}
{"smiles": "Cc1cccc(NC(=O)COC(=O)Cc2cccs2)c1C", "values": [{"measurement": "IC50", "setting": "[7]", "value": "12.8 µM (inactive)"}, {"measurement": "IC50", "setting": "[8]", "value": "7.35 µM (active)"}, {"measurement": "IC50", "setting": "[9]", "value": "35.9 µM (inactive)"}]}
{"smiles": "O=C(NCCc1ccccc1)c1ccc2c(c1)OCO2", "values": [{"measurement": "AC50", "setting": "[10]", "value": "2.31 µM (active)"}, {"measurement": "AC50", "setting": "[11]", "value": "2.88 µM (active)"}]}
{"smiles": "CN(CC(=O)Nc1ccccc1Cl)C(=O)COC(=O)c1nc(Cl)c(Cl)c(Cl)c1Cl", "values": [{"measurement": "IC50", "setting": "[12]", "value": "8.62 µM (active)"}, {"measurement": "EC50", "setting": "[13]", "value": "> 91.2 µM (inactive)"}, {"measurement": "EC50", "setting": "[14]", "value": "> 91.2 µM (inactive)"}]}
{"smiles": "COc1cccc(Cl)c1NC(=O)N1CCc2c([nH]c3ccccc23)C1C(F)(F)F", "note": "(stereo not drawn)", "values": [{"measurement": "AC50", "setting": "[15]", "value": "4.56 µM (active)"}, {"measurement": "AC50", "setting": "[16]", "value": "15 µM (active)"}, {"measurement": "AC50", "setting": "[17]", "value": "2.65 µM (active)"}, {"measurement": "AC50", "setting": "[18]", "value": "36.8 µM (active)"}]}
{"smiles": "COc1ccc(C(=O)Nc2cccnc2)cc1OC", "values": [{"measurement": "AC50", "setting": "[3]", "value": "8.29 µM (active)"}]}
{"smiles": "CN(C)S(=O)(=O)c1cccc(NC(=O)Cc2ccc(Cl)cc2)c1", "values": [{"measurement": "IC50", "setting": "[19]", "value": "72.3 µM (inactive)"}, {"measurement": "IC50", "setting": "[20]", "value": "83.3 µM (inactive)"}, {"measurement": "IC50", "setting": "[21]", "value": "32.3 µM (inactive)"}]}
{"smiles": "CCOc1ccccc1NC(=O)Cc1cccs1", "values": [{"measurement": "AC50", "setting": "[22]", "value": "16.7 µM (active)"}]}
